Results on 17 compounds are retold here after US7863449B2, “Modulators of muscarinic receptors” (Vertex Pharmaceuticals Incorporated, priority 2004, dated 2011).

One may read the Emax as the maximal effect, on the per cent scale that the assay sets.

Each structure is given as a SMILES string.

One assay addresses T1, M1 muscarinic receptor (Homo sapiens, UniProt P11229).
T1 construct: expressed in transfected cells; host or cells: CHO (M1-CHO)
T1 sequence (P11229 1-460): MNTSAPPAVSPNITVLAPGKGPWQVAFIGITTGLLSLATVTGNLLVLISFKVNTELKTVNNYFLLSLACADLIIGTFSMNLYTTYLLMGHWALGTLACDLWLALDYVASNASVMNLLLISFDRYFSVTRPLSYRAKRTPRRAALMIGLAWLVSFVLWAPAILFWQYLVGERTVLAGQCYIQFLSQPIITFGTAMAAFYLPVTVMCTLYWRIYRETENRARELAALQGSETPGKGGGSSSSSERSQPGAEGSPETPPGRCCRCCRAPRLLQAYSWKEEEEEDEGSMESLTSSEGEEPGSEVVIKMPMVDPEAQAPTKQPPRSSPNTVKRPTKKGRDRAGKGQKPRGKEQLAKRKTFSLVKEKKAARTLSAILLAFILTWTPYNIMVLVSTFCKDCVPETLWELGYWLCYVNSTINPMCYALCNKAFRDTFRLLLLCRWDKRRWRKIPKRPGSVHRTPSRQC
In words: Functional mobilization of intracellular calcium (FLIPR), M1-CHO cells. The assay is classed as cell-based. The following applies: for Emax: 100% efficacy is the maximum response obtained using Carbachol as a control; for M1 Activity: M1-CHO cells, FLIPR calcium mobilization. How it is done:
(§1) Functional Mobilization of Intracellular Calcium to Determine Muscarinic Receptor Activity:
(§2) CHO cells expressing muscarinic receptors (M1 to M5) are grown as monolayers in tissue culture flasks at 37° C. in a humidified atmosphere containing 5% CO2 and passaged every 3-5 days. The growth media is Dulbecco's modified eagles medium (DMEM, Gibco Cat# 12430-054), containing 25 mM Hepes and supplemented with Fetal Bovine Serum (Hyclone, cat# SH30071.03), 0.1 mM of MEM non-essential amino acids (GIBCO, Cat# 11140-050), 1 mM MEM Sodium Pyruvate (GIBCO Cat# 11360-070) and 100 units/ml of Penicillin G and 100 μg/ml of Streptomycin (GIBCO Cat# 15140-122). The recombinant muscarinic receptor cell lines are grown under antibiotic pressure with media containing 25 μg/ml zeocin and 500 μg/ml G418 (M1-CHO), 4 μg/ml puromycin, 50 μg/ml zeocin and 2.5 μg/ml blasticidin (M2 and M4-CHO) or 50 μg/ml zeocin and 4 μg/ml puromycin (M3 and M5-CHO).
(§3) Cells are harvested at 80-90% confluence using Versene (GIBCO Cat# 15040-066), collected by centrifugation and seeded 18-24 hrs prior to running the calcium assay at a density of 5,000-10,000 cells/well in […], clear-bottomed 384-well plates (BD Biocoat, poly-D-lysine, Cat#356663). The day of the experiment, the cells are washed with a plate washer (Bioteck Instruments, ELX 405) using bath1 buffer (140-mM NaCl, 4.5-mM KCl, 2-mM CaCl2, 1-mM MgCl2, 10-mM Hepes-Na, 10-mM Glucose, pH 7.4, with NaOH) containing 1 mM Probenecid. Next, the calcium dye Fluo-3 (25 μl/well of Fluo-3 AM at 4 μM, Molecular Probes F-1241, in Bath 1 buffer containing 1 mM Probenecid) is added to the 25 μl of Bath 1 remaining in each well after the plate wash and the dye is loaded at 37° C. in the tissue culture incubator for 60-90 min. The fluorescent dye is removed using the plate washer with Bath 1 containing 1 mM Probenecid, leaving 25 μl/well of this solution after the wash. Alternatively, cells can be loaded with the calcium indicator from Molecular Devices (Calcium 3 Assay Reagents, Cat # R7181) adding 5 μl of a 5× solution dye in Bath 1 containing 1 mM Probenecid (10 ml per dye flask cat# R7182 to generate a solution 20×) to 20 μl of the same buffer. After loading for 60 min, the experiment can be run without having to remove the dye.
(§4) Compounds are prepared at a 2× fold concentration in a 96-well plate (round bottom, Costar Corning cat# 3656), by reconstituting the pre-spotted compounds in bath 1 containing 1 mM probenecid. The final concentration DMSO is 0.5%, and the amount of DMSO is normalized across the assay plate. To determine an agonist action of the compounds on muscarinic receptors, the reconstituted compounds are added (25 μl compound/well) to the cell assay plate (containing 25 μl/well) using the multi-channel robotic system of the FLIPR 3 Instrument (Molecular Devices, Sunnyvale, Calif.). To determine a functional inhibitory action of the compounds on muscarinic receptors, the reconstituted compounds are added (25 μl compound/well) to the assay plate and pre-incubated for 15 min prior to adding 25 μl of Carbachol at 3× the EC80 for each muscarinic subtype. Alternatively, the compounds can be co-applied simultaneously with the agonist. In both assay modes, the fluorescence is recorded for 60 sec (excitation wavelength is […] and emission wavelength 540 nm) using the FLIPR 3 instrument.
(§5) The potency, efficacy and selectivity of the muscarinic compounds were evaluated by screening the compound activity across the whole family (M1 to M5 cells). Compounds were also screened for activity on other proteins such as other GPCRs and ion channels to determine selectivity on M4 receptors.
In general terms: A change in cytosolic calcium serves as a functional read-out for many receptors and channels.

Another assay addresses T2, M4 muscarinic receptor (Homo sapiens, UniProt P08173).
T2 construct: expressed in transfected cells; host or cells: CHO (M4-CHO)
T2 sequence (P08173 1-479): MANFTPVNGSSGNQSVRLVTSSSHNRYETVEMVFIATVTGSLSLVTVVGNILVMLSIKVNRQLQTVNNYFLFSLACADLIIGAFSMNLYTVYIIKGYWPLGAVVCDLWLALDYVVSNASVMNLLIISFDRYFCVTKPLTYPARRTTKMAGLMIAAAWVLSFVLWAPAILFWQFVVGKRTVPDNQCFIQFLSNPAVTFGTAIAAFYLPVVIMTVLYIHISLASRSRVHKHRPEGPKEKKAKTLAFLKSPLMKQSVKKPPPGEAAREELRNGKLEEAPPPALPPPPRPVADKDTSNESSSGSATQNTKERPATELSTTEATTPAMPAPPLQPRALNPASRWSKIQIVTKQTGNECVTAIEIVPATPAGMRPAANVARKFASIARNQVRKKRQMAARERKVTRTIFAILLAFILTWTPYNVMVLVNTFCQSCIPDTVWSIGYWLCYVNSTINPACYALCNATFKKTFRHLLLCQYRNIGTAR
In words: Functional mobilization of intracellular calcium (FLIPR), M4-CHO cells. The assay is classed as cell-based. Conditions: for Emax: 100% efficacy is the maximum response obtained using Carbachol as a control; for M4 Activity: M4-CHO cells, FLIPR calcium mobilization. On the procedure:
as §1, §2, §3, §4, §5

For the compound `CCOC(=O)N1CC(CN2CCC3(CC2)CN(C(C)=O)Cc2ccccc23)C1` [compound 1], at M1 muscarinic receptor, the Emax is 25 to 100% and the “M1 Activity” value is on record as “++ (activity was measured to be from 1.0 μM to 5.0 μM)”. On M4 muscarinic receptor, the Emax was less than 25% and the “M4 Activity” value is listed as “++ (activity was measured to be from 1.0 μM to 5.0 μM)”.
Consider `CC(=O)N1Cc2ccccc2C2(CCN(CC3CCC(C)=CC3C)CC2)C1` (stereo not drawn) [compound 2], for which the Emax at M1 muscarinic receptor and at M4 muscarinic receptor was less than 25% throughout.
For the compound `CN(C)S(=O)(=O)N1Cc2ccccc2C2(CCN(C3CC4CCC(C3)N4C(=O)O[C@@H]3CCOC3)CC2)C1` (stereo partly drawn) [compound 3], at M1 muscarinic receptor, the Emax fell in the range of 25 to 100% and the “M1 Activity” value was “+++ (activity was measured to be less than 1.0 μM)”. Also, at M4 muscarinic receptor, the Emax is 25 to 100% and the “M4 Activity” value is given as “+++ (activity was measured to be less than 1.0 μM)”.
As to `CC(=O)N1Cc2ccccc2C2(CCN(C3(C)CCCCC3)CC2)C1` [compound 4, 1-(1′-(1-methylcyclohexyl)-1H-spiro[isoquinoline-4,4′-piperidine]-2(3H)-yl)ethanone], at M1 muscarinic receptor, the Emax lay within 25 to 100% and the “M1 Activity” value is “++ (activity was measured to be from 1.0 μM to 5.0 μM)”. Also, at M4 muscarinic receptor, the Emax was 25 to 100% and the “M4 Activity” value is on record as “+++ (activity was measured to be less than 1.0 μM)”.
On to `CC(=O)N1Cc2ccccc2C2(CCN(Cc3ccncc3)CC2)C1` [compound 5], for which, on M1 muscarinic receptor, the maximal response (Emax) was less than 25% and the “M1 Activity” value is on record as “+ (activity was measured to be greater than 5.0 μM)”. Moreover, at M4 muscarinic receptor, the maximum response (Emax) is less than 25% and the “M4 Activity” value is on record as “+ (activity was measured to be greater than 5.0 μM)”.
On to `CCOC(=O)N1CCC(N2CCC3(CC2)CN(C(=O)CC)Cc2ccccc23)CC1` [compound 6], for which, at M1 muscarinic receptor, the Emax is 25 to 100% and the “M1 Activity” value is on record as “+++ (activity was measured to be less than 1.0 μM)”. In addition, on M4 muscarinic receptor, the Emax lay within 25 to 100% and the “M4 Activity” value was “+++ (activity was measured to be less than 1.0 μM)”.
On to `CCCOC(=O)N1C2CCC1CC(N1CCC3(CC1)CN(C(=O)N(C)C)Cc1ccccc13)C2` (stereo not drawn) [compound 7], for which, on M1 muscarinic receptor, the Emax lay in the range of 25 to 100% and the “M1 Activity” value is on record as “+++ (activity was measured to be less than 1.0 μM)”. At M4 muscarinic receptor, the Emax was in the range of 25 to 100% and the “M4 Activity” value is “+++ (activity was measured to be less than 1.0 μM)”.
Regarding `CCOC(=O)N1C2CCC1CC(N1CCC3(CC1)CN(C(=O)OC(C)C)Cc1ccccc13)C2` (stereo not drawn) [compound 8], on M1 muscarinic receptor, the Emax was in the range of 25 to 100% and the “M1 Activity” value is “+++ (activity was measured to be less than 1.0 μM)”. Moreover, on M4 muscarinic receptor, the Emax was 25 to 100% and the “M4 Activity” value is recorded as “+++ (activity was measured to be less than 1.0 μM)”.
With `CCOC(=O)N1CCC(N2CCC3(CC2)CN(CC#Cc2ccccc2)Cc2ccccc23)CC1` [compound 9], at M1 muscarinic receptor, the Emax was in the range of 25 to 100% and the “M1 Activity” value is on record as “+++ (activity was measured to be less than 1.0 μM)”. For the same compound, at M4 muscarinic receptor, the Emax was in the range of 25 to 100% and the “M4 Activity” value is given as “+++ (activity was measured to be less than 1.0 μM)”.
On to `CCOC(=O)N1CCC(N2CCC3(CC2)CN(C(=O)C2CCCC2)Cc2ccccc23)CC1` [compound 10], for which, on M1 muscarinic receptor, the Emax was in the range of 25 to 100% and the “M1 Activity” value is given as “+++ (activity was measured to be less than 1.0 μM)”. Further, on M4 muscarinic receptor, the Emax is less than 25% and the “M4 Activity” value is “++ (activity was measured to be from 1.0 μM to 5.0 μM)”.
Taken in the same sequence, the figures for `CCOC(=O)N1CCC(CN2CCC3(CC2)CN(C(=O)OCC)Cc2ccccc23)CC1` [compound 11] were 25 to 100%, “+++ (activity was measured to be less than 1.0 μM)”, 25 to 100% and “+++ (activity was measured to be less than 1.0 μM)”.
In the same order, the values of `CCOC(=O)N1C2CCC1CC(N1CCC3(CC1)CN(c1ccc(C)c(C)c1)Cc1ccccc13)C2` (stereo not drawn) [compound 12] are 25 to 100%, “+++ (activity was measured to be less than 1.0 μM)”, 25 to 100% and “+++ (activity was measured to be less than 1.0 μM)”.
In the same order, the values of `CC(=O)N1Cc2ccccc2C2(CCN(C3CC4CCC(C3)N4C(=O)O[C@@H]3CCOC3)CC2)C1` (stereo partly drawn) [compound 13] are 25 to 100%, “+++ (activity was measured to be less than 1.0 μM)”, 25 to 100% and “+++ (activity was measured to be less than 1.0 μM)”.
On to `CCOC(=O)N1C2CCC1CC(N1CCC3(CC1)CN(C(=O)OC1CCCC1)Cc1ccccc13)C2` (stereo not drawn) [compound 14], for which, at M1 muscarinic receptor, the Emax is 25 to 100% and the “M1 Activity” value is “+++ (activity was measured to be less than 1.0 μM)”. Also, at M4 muscarinic receptor, the Emax was in the range of 25 to 100% and the “M4 Activity” value is reported as “+++ (activity was measured to be less than 1.0 μM)”.
`CCOC(=O)N1C2CCC1CC(N1CCC3(CC1)CN(C(=O)c1cc(C)nn1C(C)(C)C)Cc1ccccc13)C2` (stereo not drawn) [compound 15]: at M1 muscarinic receptor, the Emax fell in the range of 25 to 100% and the “M1 Activity” value is listed as “+++ (activity was measured to be less than 1.0 μM)”. On M4 muscarinic receptor, the Emax was in the range of 25 to 100% and the “M4 Activity” value was “+++ (activity was measured to be less than 1.0 μM)”.
As for `CCOC(=O)N1CCC(N2CCC3(CC2)CN(C(=O)Nc2ccccc2)Cc2ccccc23)CC1` [compound 16], on M1 muscarinic receptor, the Emax is 25 to 100% and the “M1 Activity” value was “+++ (activity was measured to be less than 1.0 μM)”. Moreover, at M4 muscarinic receptor, the Emax is 25 to 100% and the “M4 Activity” value was “+++ (activity was measured to be less than 1.0 μM)”.
As for `CCOC(=O)N1C2CCC1CC(N1CCC3(CC1)CN(C(=O)c1cccnc1)Cc1ccccc13)C2` (stereo not drawn) [compound 17], at M1 muscarinic receptor, the Emax is 25 to 100% and the “M1 Activity” value was “+++ (activity was measured to be less than 1.0 μM)”. Further, on M4 muscarinic receptor, the Emax was 25 to 100% and the “M4 Activity” value is reported as “+++ (activity was measured to be less than 1.0 μM)”.
